Activity calls are given as the source filed them. No cut-off for these calls is given here.
Key:
[1] = target: T1, 5'-nucleotidase (Rattus norvegicus) (UniProt P21588); assay: Uncompetitive inhibition of rat ecto-5' nucleotidase assessed as increase in Km with constant Vmax at 0 to 0.6 uM by Lineweaver-Burk plot analysis; settings: dose microM 0-0.6
T1 sequence (whole entry): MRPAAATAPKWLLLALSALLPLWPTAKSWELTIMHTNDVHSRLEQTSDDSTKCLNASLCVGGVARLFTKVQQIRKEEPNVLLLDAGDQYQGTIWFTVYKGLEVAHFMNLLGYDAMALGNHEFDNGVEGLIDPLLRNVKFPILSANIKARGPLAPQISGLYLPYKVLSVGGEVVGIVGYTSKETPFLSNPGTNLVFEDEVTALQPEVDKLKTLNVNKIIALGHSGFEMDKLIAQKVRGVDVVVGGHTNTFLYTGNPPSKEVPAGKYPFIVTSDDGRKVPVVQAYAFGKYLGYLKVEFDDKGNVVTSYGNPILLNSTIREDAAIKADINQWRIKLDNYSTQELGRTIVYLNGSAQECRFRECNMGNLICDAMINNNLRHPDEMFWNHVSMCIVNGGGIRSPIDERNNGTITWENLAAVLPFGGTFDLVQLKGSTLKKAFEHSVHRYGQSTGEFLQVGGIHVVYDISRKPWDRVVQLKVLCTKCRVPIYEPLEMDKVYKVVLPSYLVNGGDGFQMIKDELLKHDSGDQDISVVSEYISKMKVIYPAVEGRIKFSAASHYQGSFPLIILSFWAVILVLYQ

5'-nucleotidase [2] = target: T2, 5'-nucleotidase (Homo sapiens, UniProt P21589); assay: (§1) Inhibition of recombinant human ecto-5' nucleotidase expressed in COS7 cell membranes assessed as inorganic phosphate release using AMP as substrate at 100 uM preincubated for 10 mins followed by substrate addition and measured after 20 mins by malachite green dye based spectrophotometry relative to control
Target sequence in this assay (P21589 whole entry): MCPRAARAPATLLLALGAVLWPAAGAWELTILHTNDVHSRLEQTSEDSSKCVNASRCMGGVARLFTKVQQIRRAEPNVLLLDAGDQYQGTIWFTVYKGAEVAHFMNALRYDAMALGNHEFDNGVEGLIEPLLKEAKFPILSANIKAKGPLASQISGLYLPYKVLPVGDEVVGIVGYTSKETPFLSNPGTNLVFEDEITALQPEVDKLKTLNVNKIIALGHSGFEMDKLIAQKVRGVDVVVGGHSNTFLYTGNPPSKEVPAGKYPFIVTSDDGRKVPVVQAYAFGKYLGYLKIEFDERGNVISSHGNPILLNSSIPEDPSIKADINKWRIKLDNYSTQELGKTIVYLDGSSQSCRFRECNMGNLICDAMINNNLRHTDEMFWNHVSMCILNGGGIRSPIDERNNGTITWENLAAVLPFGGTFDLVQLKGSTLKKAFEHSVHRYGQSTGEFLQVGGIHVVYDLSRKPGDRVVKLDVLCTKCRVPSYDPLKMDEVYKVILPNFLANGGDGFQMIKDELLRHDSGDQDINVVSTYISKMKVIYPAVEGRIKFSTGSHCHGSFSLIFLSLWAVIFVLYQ

5'-nucleotidase [3] = target: T3, 5'-nucleotidase (Rattus norvegicus, UniProt P21588); assay: Inhibition of recombinant rat ecto-5' nucleotidase expressed in COS7 cell membranes assessed as inorganic phosphate release using AMP as substrate uM preincubated for 10 mins followed by substrate addition and measured after 20 mins by malachite green dye based spectrophotometry
T3 sequence (P21588 whole entry): T1 sequence (whole entry)

[4] = target: T1, 5'-nucleotidase (Rattus norvegicus); assay: as §1, with “rat” for “human”
5'-nucleotidase [5] = target: T2, 5'-nucleotidase; assay: Potency index, ratio of sulfamic acid IC50 to compound IC50 for human ecto-5' nucleotidase expressed in COS7 cell membranes assessed as inorganic phosphate release using AMP as substrate preincubated for 10 mins followed by substrate addition and measured after 20 mins by malachite green dye based …
Target sequence in this assay (P21589 whole entry, looked up): as the sequence (P21589 whole entry) above

5'-nucleotidase [6] = target: T2, 5'-nucleotidase; assay: Inhibition of recombinant human ecto-5' nucleotidase expressed in COS7 cell membranes assessed as inorganic phosphate release using AMP as substrate preincubated for 10 mins followed by substrate addition and measured after 20 mins by malachite green dye based spectrophotometry
Target sequence in this assay (P21589 whole entry): as above

5'-nucleotidase [7] = target: T2, 5'-nucleotidase; assay: Noncompetitive inhibition of human ecto-5' nucleotidase assessed as increase in Km with constant Vmax at 0 to 0.6 uM by Lineweaver-Burk plot analysis; settings: dose microM 0-0.6
Target sequence in this assay (P21589 whole entry): as above

[8] = Selectivity index, ratio of IC50 for recombinant rat ecto-5' nucleotidase expressed in COS7 cell membranes to IC50 for recombinant human ecto-5' nucleotidase expressed in COS7 cell membranes; type: cell-based
5'-nucleotidase [9] = target: T2, 5'-nucleotidase; assay: Inhibition of recombinant human ecto-5' nucleotidase expressed in COS7 cell membranes using AMP as substrate preincubated for 10 mins followed by substrate addition and measured after 20 mins by capillary electrophoresis method
Target sequence in this assay (P21589 whole entry): as above

Row | Compound | inhibition (5'-nucleotidase [2]) [%] | IC50 (5'-nucleotidase [3]) [nM] | inhibition [4] [%] | IC50 (5'-nucleotidase [6]) [nM] | other results
1 | Cc1[nH]nc2c1C1(C(=O)N(C)c3ccccc31)C(C#N)=C(N)N2 (centres undefined) | 36.6 | 190 |  |  | inhibition [1]: Active
2 | N#CC1=C(N)Nc2n[nH]cc2C12C(=O)Nc1ccccc12 (centres undefined) | 27.6 |  | 41.7 |  | 
3 | Cc1[nH]nc2c1C1(C(=O)Nc3ccccc31)C(C#N)=C(N)N2 (centres undefined) | 33 |  | 36.5 |  | 
4 | Cc1[nH]nc2c1C1(C(=O)N(C)c3ccc(Cl)cc31)C(C#N)=C(N)N2 (centres undefined) | 33 | 1560 |  |  | 
5 | Cc1[nH]nc2c1C1(C(=O)N(C)c3ccc(OC(F)(F)F)cc31)C(C#N)=C(N)N2 (centres undefined) |  | 3560 |  | 180 | 
6 | Cc1[nH]nc2c1C1(C(=O)N(C)c3ccc(F)cc31)C(C#N)=C(N)N2 (centres undefined) |  | 5010 |  | 260 | 
7 | Cc1ccc(-n2nc(C)c3cc(Cl)c(-c4cc(C)ccc4O)nc32)cc1 |  |  |  |  | IC50 (5'-nucleotidase [9]): 320 nM

The next lines start with results.

Row | inhibition (5'-nucleotidase [2]) [%] | IC50 (5'-nucleotidase [3]) [nM] | inhibition [4] [%] | IC50 (5'-nucleotidase [6]) [nM] | Compound | other results
8 | 34.3 |  | 45.1 |  | Cc1[nH]nc2c1C1(C(=O)N(C)c3ccc([N+](=O)[O-])cc31)C(C#N)=C(N)N2 (centres undefined) | 
9 |  | 520 |  | 150 | CN1C(=O)C2(C(C#N)=C(N)Nc3n[nH]cc32)c2cc(OC(F)(F)F)ccc21 (centres undefined) | Ratio IC50 (5'-nucleotidase [5]): 280; inhibition (5'-nucleotidase [7]): Active
10 | 39.7 | 680 |  |  | CN1C(=O)C2(C(C#N)=C(N)Nc3n[nH]cc32)c2cc(Cl)ccc21 (centres undefined) | 
11 | 38 | 2120 |  |  | CN1C(=O)C2(C(C#N)=C(N)Nc3n[nH]cc32)c2cc([N+](=O)[O-])ccc21 (centres undefined) | 
12 |  | 7990 |  | 460 | CN1C(=O)C2(C(C#N)=C(N)Nc3n[nH]cc32)c2cc(F)ccc21 (centres undefined) | Ratio IC50 [8]: 17.3
13 |  |  | 41 | 690 | CN1C(=O)C2(C(C#N)=C(N)Nc3n[nH]cc32)c2ccccc21 (centres undefined) | 
